Patent publication US12110288B2, “MASP-2 inhibitors and methods of use” (Omeros Corporation, priority 2019, dated 2024)
Counter-ions that a name gives are not always drawn.

Biological target: T1, MASP-2 (CCP1-CCP2-SP) (Homo sapiens, UniProt O00187)
T1 construct: 15 μL of Enzyme MASP-2 (CCP1-CCP2-SP) in Assay Buffer
Test: Enzymatic Assay for MASP-2
Format: biochemical
Settings: fluorogenic substrate based on C2 cleavage site, room temperature, 20 mM HEPES pH 7.4
Experimental: Enzymatic Assay for MASP-2
The MASP-2 assay utilizes a fluorogenic substrate, based on the cleavage site for its natural substrate C2. The assay is run at room temperature in an assay buffer containing 20 mM HEPES, pH 7.4, 140 mM NaCl and 0.1% Tween 20. Assay parameters are adjusted such that the assay is linear with respect to time, enzyme, and substrate concentrations. Under these optimized assays conditions, IC50 values are equivalent to Ki values, except in a few cases of “tight binding” inhibitors. Cases of “tight binding” or possible “slow binding” inhibitors are handled by the methods described in Copeland R. A. (2013) Evaluation of Enzyme Inhibitors in Drug Discovery. 2nd Ed., John Wiley and Sons, Inc., Chapters 5-7.
The MASP-2 assay protocol is carried out as follows. Test compounds are serially diluted in DMSO and then 100 nL of each dilution is transferred to the assay plate(s). 10 μL of Assay Buffer is added, followed by 15 μL of Enzyme MASP-2 (CCP1-CCP2-SP) in Assay Buffer. 15 μL of Substrate in Assay Buffer is then added and mixed to start the reactions. After 20 min at room temperature, 15 μL of a stop solution (0.1 M acetic acid) is added, mixed and the plates are read on a SpectraMax i3x Microplate Reader and exported as Excel files. Each assay plate included a “no inhibitor” (DMSO Only) control, a “no enzyme” control and a reference inhibitor control. % Activity values=100*(average test comp. fluorescence−average “no enzyme” fluorescence)/(average “DMSO only” fluorescence−average “no enzyme” fluorescence). IC50 and Ki values are very reproducible, falling well within ±2-fold.

T1 sequence (O00187 445-686 limits assumed): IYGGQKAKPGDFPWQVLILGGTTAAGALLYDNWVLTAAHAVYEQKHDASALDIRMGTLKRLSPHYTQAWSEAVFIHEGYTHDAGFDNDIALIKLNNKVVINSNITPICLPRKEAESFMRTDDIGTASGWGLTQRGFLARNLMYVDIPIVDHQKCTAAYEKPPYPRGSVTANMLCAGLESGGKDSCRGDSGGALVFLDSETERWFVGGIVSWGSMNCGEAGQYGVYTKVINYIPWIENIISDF
T1 sequence (O00187 298-444 partner limits assumed): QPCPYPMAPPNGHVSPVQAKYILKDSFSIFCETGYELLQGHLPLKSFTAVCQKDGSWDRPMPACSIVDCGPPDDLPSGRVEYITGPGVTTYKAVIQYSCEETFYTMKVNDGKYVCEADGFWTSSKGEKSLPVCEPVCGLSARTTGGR

Row | Compound | Ki [nM]
1 | O=C(Cn1c(-c2ccccc2)cnc(N2CC(c3ccccc3)C2)c1=O)NCc1cc2cnccc2[nH]1 [Compound 139, N-((1H-Pyrrolo[3,2-c]pyridin-2-yl)methyl)-2-(2-oxo-6-phenyl-3-(3-phenylazetidin-l-yl)pyrazin-1(2H)-yl)acetamide] | < 500
2 | CNc1ncc(-c2ccccc2)n(CC(=O)NCc2cc3cnccc3[nH]2)c1=O [Compound 148, N-((1H-Pyrrolo[3,2-c]pyridin-2-yl)methyl)-2-(3-(methylamino)-2-oxo-6-phenylpyrazin-1(2H)-yl)acetamide] | < 500
3 | Cc1nc(N)ccc1CNC(=O)Cn1c(-c2cccnc2)cnc(NCCc2ccccc2)c1=O [Compound 18, N-((6-amino-2-methylpyridin-3-yl)methyl)-2-(2-oxo-3-(phenethylamino)-6-(pyridin-3-yl)pyrazin-1(2H)-yl)acetamide trifluoroacetate] | < 500
4 | O=C(Cn1c(-c2ccccc2)cnc(NCc2cccc(C(F)(F)F)c2)c1=O)NCc1cc2cnccc2[nH]1 [Compound 152, N-((1H-Pyrrolo[3,2-c]pyridin-2-yl)methyl)-2-(2-oxo-6-phenyl-3-((3-(trifluoromethyl)benzyl)amino)pyrazin-1(2H)-yl)acetamide] | < 500
5 | O=C(Cn1c(-c2ccccc2)cnc(NCC2(c3ccccc3)CCC2)c1=O)NCc1cc2cnccc2[nH]1 [Compound 56, N-((1H-Pyrrolo[3,2-c]pyridin-2-yl)methyl)-2-(2-oxo-6-phenyl-3-(((1-phenylcyclobutyl)methyl)amino)pyrazin-1(2H)-yl)acetamide trifluoroacetate] | < 500
6 | O=C(Cn1c(-c2ccccc2)cnc(NCC2(c3ccccc3F)COC2)c1=O)NCc1cc2cnccc2[nH]1 [Compound 62, N-((1H-Pyrrolo[3,2-c]pyridin-2-yl)methyl)-2-(3-(((3-(2-fluorophenyl)oxetan-3-yl)methyl)amino)-2-oxo-6-phenylpyrazin-1(2H)-yl)acetamide trifluoroacetate] | < 500
7 | Cc1nc(N)ccc1CNC(=O)Cn1c(-c2cccc(C(N)=O)c2)cnc(NCCc2ccccc2)c1=O [Compound 30, 3-(1-(2-(((6-Amino-2-methylpyridin-3-yl)methyl)amino)-2-oxoethyl)-6-oxo-5-(phenethylamino)-1,6-dihydropyrazin-2-yl)benzamide hydrochloride] | < 500
8 | Cc1ccc(CCNc2ncc(-c3ccccc3)n(CC(=O)NCc3cc4cnccc4[nH]3)c2=O)cc1 [Compound 138, N-((1H-Pyrrolo[3,2-c]pyridin-2-yl)methyl)-2-(3-((4-methylphenethyl)amino)-2-oxo-6-phenylpyrazin-1(2H)-yl)acetamide] | < 500
9 | N#Cc1cccc(-c2cnc(NCCc3ccccc3)c(=O)n2CC(=O)NCc2ccc3nc(N)[nH]c3c2)c1 [Compound 14, N-((2-Amino-1H-benzo[d]imidazol-6-yl)methyl)-2-(6-(3-cyanopheny1)-2-oxo-3-(phenethylamino)pyrazin-1(2H)-yl)acetamide] | < 500
10 | O=C(Cn1c(-c2ccccc2)cnc(NCc2cccc(Cl)c2)c1=O)NCc1cc2cnccc2[nH]1 [Compound 75, N-((1H-Pyrrolo[3,2-c]pyridin-2-yl)methyl)-2-(3-((3-chlorobenzyl)amino)-2-oxo-6-phenylpyrazin-1(2H)-yl)acetamide trifluoroacetate] | < 500
11 | CC(C)Nc1ncc(-c2ccccc2)n(CC(=O)NCc2cc3cnccc3[nH]2)c1=O [Compound 134, N-((1H-Pyrrolo[3,2-c]Pyridin-2-yl)Methyl)-2-(3-(Isopropylamino)-2-Oxo-6-Phenylpyrazin-1(2H)-yl)Acetamide] | < 500
12 | O=C(Cn1c(-c2ccccc2)cnc(N2CC[C@H](c3ccccc3)C2)c1=O)NCc1cc2cnccc2[nH]1 [Compound 143, (R)-N-((1H-Pyrrolo[3,2-c]pyridin-2-yl)methyl)-2-(2-oxo-6-phenyl-3-(3-phenylpyrrolidin-l-yl)pyrazin-1(2H)-yl)acetamide] | < 500
13 | CCOCCCNc1ncc(-c2ccccc2)n(CC(=O)NCc2cc3cnccc3[nH]2)c1=O [Compound 126, N-((1H-Pyrrolo[3,2-c]Pyridin-2-yl)Methyl)-2-(3-((3-Ethoxypropyl)Amino)-2-Oxo-6-Phenylpyrazin-1(2H)-yl)Acetamide Trifluoroacetate] | < 500
14 | Nc1nc2ccc(CNC(=O)Cn3c(-c4cccc(C(=O)O)c4)cnc(NCCc4ccccc4)c3=O)cc2[nH]1 [Compound 16] | < 500
15 | COc1ccc(CCNc2ncc(-c3ccccc3)n(CC(=O)NCc3cc4cnccc4[nH]3)c2=O)cc1 [Compound 142, N-((1H-Pyrrolo[3,2-c]pyridin-2-yl)methyl)-2-(3-((4-methoxyphenethyl)amino)-2-oxo-6-phenylpyrazin-1(2H)-yl)acetamide] | < 500
16 | O=C(Cn1c(Br)cnc(NCCc2ccccc2)c1=O)NCc1cc2cnccc2[nH]1 [Compound 109, N-((1H-Pyrrolo[3,2-c]Pyridin-2-yl)Methyl)-2-(6-Bromo-2-Oxo-3-(Phenethylamino)Pyrazin-1(2H)-yl)Acetamide] | < 500
17 | C[C@H](Nc1ncc(-c2ccccc2)n(CC(=O)NCc2cc3cnccc3[nH]2)c1=O)c1ccccc1 [Compound 156, (S)-N-((1H-Pyrrolo[3,2-c]pyridin-2-yl)methyl)-2-(2-oxo-6-phenyl-3-((1-phenylethyl)amino)pyrazin-1(2H)-yl)acetamide] | < 500
18 | Cc1nc(N)ccc1CNC(=O)Cn1c(-c2ccccc2)cnc(N2CCCC2)c1=O [Compound 43, N-((6-Amino-2-Methylpyridin-3-yl)Methyl)-2-(2-Oxo-6-Phenyl-3-(Pyrrolidin-1-yl)Pyrazin-1(2H)-yl)Acetamide] | < 500
19 | O=C(Cn1c(-c2ccccc2)cnc(NCc2cccc(F)c2)c1=O)NCc1cc2cnccc2[nH]1 [Compound 151, N-((1H-Pyrrolo[3,2-c]pyridin-2-yl)methyl)-2-(3-((3-fluorobenzyl)amino)-2-oxo-6-phenylpyrazin-1(2H)-yl)acetamide] | < 500
20 | O=C(O)Cc1cccc(-c2cnc(NCCc3ccccc3)c(=O)n2CC(=O)NCc2cc3cnccc3[nH]2)c1 [Compound 94, 2-(3-(1-(2-(((1H-Pyrrolo[3,2-c]Pyridin-2-yl)Methyl) Amino)-2-Oxoethyl)-6-Oxo-5-(Phenethylamino)-1,6-Dihydropyrazin-2-yl)Phenyl)Acetic Acid Trifluoroacetate] | < 500
21 | Cc1cc(Cl)cc(CNC(=O)Cn2c(=O)c(NCCc3ccccc3)cn(C)c2=O)c1O [Compound 35, trifluoroacetate] | 2500 to 10000
22 | Cn1cc(-c2cnc(NCCc3ccccc3)c(=O)n2CC(=O)NCc2cnc3[nH]cc(Cl)c3c2)cn1 [Compound 81, N-((3-Chloro-1H-Pyrrolo[2,3-b]Pyridin-5-yl)Methyl)-2-(6-(1-Methyl-1H-Pyrazol-4-yl)-2-Oxo-3-(Phenethylamino)Pyrazin-1(2H)-yl)Acetamide] | 2500 to 10000
23 | O=C(Cn1c(-c2cc(F)ccc2F)cnc(NCCc2ccccc2)c1=O)NCc1cc2cnccc2[nH]1 [Compound 107, N-((1H-Pyrrolo[3,2-c]pyridin-2-yl)methyl)-2-(6-(2,5-difluorophenyl)-2-oxo-3-(phenethylamino)pyrazin-1(2H)-yl)acetamide] | < 500
24 | O=C(Cn1c(-c2ccccc2)cnc(NCCc2ccc(F)cc2)c1=O)NCc1cc2cnccc2[nH]1 [Compound 146, N-((1H-Pyrrolo[3,2-c]pyridin-2-yl)methyl)-2-(3-((4-fluorophenethyl)amino)-2-oxo-6-phenylpyrazin-1(2H)-yl)acetamide] | < 500
25 | COCCCCNc1ncc(-c2ccccc2)n(CC(=O)NCc2cc3cnccc3[nH]2)c1=O [Compound 124, N-((1H-Pyrrolo[3,2-c]pyridin-2-yl)methyl)-2-(3-((4-methoxybutyl)amino)-2-oxo-6-phenylpyrazin-1(2H)-yl)acetamide trifluoroacetate] | < 500
26 | COC(=O)Cc1cccc(-c2cnc(NCCc3ccccc3)c(=O)n2CC(=O)NCc2cc3cnccc3[nH]2)c1 [Compound 93, Methyl 2-(3-(1-(2(((1H-pyrrolo[3,2-c]pyridin-2-yl)methyl)amino)-2-oxoethyl)-6-oxo-5-(phenethylamino)-1,6-dihydropyrazin-2-yl)phenyl)acetate trifluoroacetate] | < 500
27 | COCCNc1ncc(-c2ccccc2)n(CC(=O)NCc2cc3cnccc3[nH]2)c1=O [Compound 120, N-((1H-Pyrrolo[3,2-c]pyridin-2-yl)methyl)-2-(3-((2-methoxyethyl)amino)-2-oxo-6-phenylpyrazin-1(2H)-yl)acetamide trifluoroacetate] | < 500
28 | Cc1cccc(CNc2ncc(-c3ccccc3)n(CC(=O)NCc3cc4cnccc4[nH]3)c2=O)c1 [Compound 155, N-((1H-Pyrrolo[3,2-c]pyridin-2-yl)methyl)-2-(3-((3-methylbenzyl)amino)-2-oxo-6-phenylpyrazin-1(2H)-yl)acetamide] | < 500
